Experimental data from US20260226493A1, “HERBICIDE RESISTANT PLANTS” (SYNGENTA CROP PROTECTION AG, priority 2023, published 2026).

Assays:
Test in all cases: BIO3-BIO1 mutant enzyme activity in the presence of herbicide, percentage inhibition (fluorometric DAPA assay)
Format in all cases: biochemical
Conditions in all cases: read-out: percentage inhibition
[1] = molecular target: T1, Arabidopsis thaliana BIO3-BIO1 (BioDA) mutants (Arabidopsis thaliana, UniProt B0F481, P347A)
T1 construct: with the predicted N-terminal mitochondrial transit peptide removed; 6xHis-tag (N); thrombin cleavage site (N); made in house; host or cells: E. coli BL21 (DE3) bioA
T1 sequence (B0F481 23-833 P347A): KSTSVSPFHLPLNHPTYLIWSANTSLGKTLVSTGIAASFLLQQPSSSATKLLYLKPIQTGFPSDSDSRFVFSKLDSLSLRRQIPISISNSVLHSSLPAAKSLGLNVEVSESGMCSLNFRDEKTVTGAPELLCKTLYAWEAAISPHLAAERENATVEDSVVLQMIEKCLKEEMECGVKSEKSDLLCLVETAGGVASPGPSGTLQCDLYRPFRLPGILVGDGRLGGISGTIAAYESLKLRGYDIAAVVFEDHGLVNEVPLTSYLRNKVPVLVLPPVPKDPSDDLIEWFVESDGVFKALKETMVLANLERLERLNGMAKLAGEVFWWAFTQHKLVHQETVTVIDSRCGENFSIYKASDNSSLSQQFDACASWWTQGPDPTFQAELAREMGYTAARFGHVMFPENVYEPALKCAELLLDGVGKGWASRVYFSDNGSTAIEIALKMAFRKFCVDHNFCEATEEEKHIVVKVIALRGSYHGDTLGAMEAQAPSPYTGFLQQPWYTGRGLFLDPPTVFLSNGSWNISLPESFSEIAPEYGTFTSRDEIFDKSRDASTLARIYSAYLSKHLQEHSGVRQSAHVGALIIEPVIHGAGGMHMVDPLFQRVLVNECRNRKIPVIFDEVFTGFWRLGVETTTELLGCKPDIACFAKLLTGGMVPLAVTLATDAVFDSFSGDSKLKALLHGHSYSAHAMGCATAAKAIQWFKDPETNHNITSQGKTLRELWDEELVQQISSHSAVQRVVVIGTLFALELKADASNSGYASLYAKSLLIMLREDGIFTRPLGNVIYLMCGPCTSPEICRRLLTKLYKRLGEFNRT
Excerpt: (§1) A pet-24 plasmid containing a DNA sequence encoding each identified variant mutant of BIO3-BIO1 derived from Arabidopsis thaliana from example 5 above, as shown in Table 13 below and as shown in full in SEQ ID NOs: 15 to 155, codon-optimised for expression in E. coli, with an N-terminal 6×His-tag and thrombin cleavage site and under control of a T7 promoter, and was synthesised by Twist Bioscience, in a similar manner to SEQ ID NO:311. These plasmids were then expressed in E. coli BL21 (DE3) bioA with 50 μg/mL kanamycin and 25 μg/mL chloramphenicol selection. Overnight cultures grown at 37° C. were used to inoculate 8×500 mL AIM in shake flasks at a ratio of 1:100. Cultures were grown at 37° C., 200 rpm for 3.5 hours and then overnight at 20° C. Cells were harvested by centrifugation for 30 minutes at 10 000 g. Cells were stored at −80° C. until extraction. 30 g of cell pellet from was thawed in 120 mL of IMAC buffer A (20 mM HEPES pH7.5, 25 mM imidazole, 500 mM sodium chloride, 0.15 mM pyridoxal phosphate, 0.5 mM TCEP, 1× complete Protease Inhibitor Tablet (Roche)). The resuspension was passed through a cell disrupter at 18 000 PSI and centrifuged at 50 000 g for 25 minutes at 4° C. The His-tagged BIO3-BIO1 protein was purified from the extract supernatant on an AKTA avant chromatography system (Cytiva) using a HisTrap FF column and eluted in IMAC buffer B ((20 mM HEPES pH7.5, 500 mM imidazole, 500 mM sodium chloride, 0.15 mM pyridoxal phosphate, 0.5 mM TCEP) followed by SEC using a HiLoad 26/60 Superdex200 column in SEC buffer (25 mM HEPES pH7.5, 150 mM sodium chloride, 0.15 mM pyridoxal phosphate, 0.5 mM TCEP). Protein concentration was measured and calculated using the absorbance at 280 nm. Extracts were diluted 1 in 4 and 10 uL was analysed by SDS PAGE.
(§2) To measure BIO3-BIO1 mutant enzyme activity in the presence of herbicide, herbicides were incubated with 20 μL of enzyme mix (100 mM EPPS pH 8.6, 0.1 mM pyridoxal phosphate, 0.1 mg/mL BSA, 50 nM BIO3-BIO1 enzyme) for 10 minutes at 20° C. in a well of a 96-well half-area black plate, followed by the addition of 20 μL of substrate mix (final concentration of 100 mM EPPS pH 8.6, 0.1 mM pyridoxal phosphate, 0.1 mg/mL BSA, 100 μM spermidine, 20 μM KAPA, 100 mM NaCO3) and further incubation for 75 minutes at 20° C. The reaction was terminated by the addition of 50 μL of derivatisation mix (final concentration of 250 mM borate NaOH pH 9.4, 3.6 mM o-phthalaldehyde, 7 mM β-mercaptoethanol, 17% (v/v) ethanol, 3.6% (v/v) methanol). The fluorescent product produced by the reaction of DAPA with o-phthalaldehyde and 7 mM β-mercaptoethanol was measured at 470 nm after excitation at 410 nm. The percentage inhibition was calculated as the activity in the presence of one of three concentrations of each herbicide compound A to M (note that the compounds labelled as A to M are identified hereinabove in the relevant section of the description) as a percentage of the activity in DMSO (Table 12 and 13). The percentage activity versus WT was also calculated and is shown in Table 13 and 14 (NT indicates mutation not tested in table 13, note that these mutations are tested at different compound concentrations for compounds L, M and C, and the results are shown in table 14).

[2] = molecular target: T2, Arabidopsis thaliana BIO3-BIO1 (BioDA) mutants (Arabidopsis thaliana, UniProt B0F481, G608A)
T2 construct: with the predicted N-terminal mitochondrial transit peptide removed; 6xHis-tag (N); thrombin cleavage site (N); made in house; host or cells: E. coli BL21 (DE3) bioA
T2 sequence (B0F481 23-833 G608A): as the sequence (B0F481 23-833 P347A) above, with A325P, G586A counted along it
Excerpt: as §1, §2

[3] = molecular target: T3, Arabidopsis thaliana BIO3-BIO1 (BioDA) mutants (Arabidopsis thaliana, UniProt B0F481, F348S)
T3 construct: with the predicted N-terminal mitochondrial transit peptide removed; 6xHis-tag (N); thrombin cleavage site (N); made in house; host or cells: E. coli BL21 (DE3) bioA
T3 sequence (B0F481 23-833 F348S): as the sequence (B0F481 23-833 P347A) above, with A325P, F326S counted along it
Excerpt: as §1, §2

[4] = molecular target: T4, Arabidopsis thaliana BIO3-BIO1 (BioDA) mutants (Arabidopsis thaliana, UniProt B0F481, F348D)
T4 construct: with the predicted N-terminal mitochondrial transit peptide removed; 6xHis-tag (N); thrombin cleavage site (N); made in house; host or cells: E. coli BL21 (DE3) bioA
T4 sequence (B0F481 23-833 F348D): as the sequence (B0F481 23-833 P347A) above, with A325P, F326D counted along it
Excerpt: as §1, §2

[5] = molecular target: T5, Arabidopsis thaliana BIO3-BIO1 (BioDA) mutants (Arabidopsis thaliana, UniProt B0F481, Q517Y)
T5 construct: with the predicted N-terminal mitochondrial transit peptide removed; 6xHis-tag (N); thrombin cleavage site (N); made in house; host or cells: E. coli BL21 (DE3) bioA
T5 sequence (B0F481 23-833 Q517Y): as the sequence (B0F481 23-833 P347A) above, with A325P, Q495Y counted along it
Excerpt: as §1, §2

[6] = molecular target: T6, Arabidopsis thaliana BIO3-BIO1 (BioDA) mutants (Arabidopsis thaliana, UniProt B0F481, S509W)
T6 construct: with the predicted N-terminal mitochondrial transit peptide removed; 6xHis-tag (N); thrombin cleavage site (N); made in house; host or cells: E. coli BL21 (DE3) bioA
T6 sequence (B0F481 23-833 S509W): as the sequence (B0F481 23-833 P347A) above, with A325P, S487W counted along it
Excerpt: as §1, §2

[7] = molecular target: T7, Arabidopsis thaliana BIO3-BIO1 (BioDA) mutants (Arabidopsis thaliana, UniProt B0F481, V354A)
T7 construct: with the predicted N-terminal mitochondrial transit peptide removed; 6xHis-tag (N); thrombin cleavage site (N); made in house; host or cells: E. coli BL21 (DE3) bioA
T7 sequence (B0F481 23-833 V354A): as the sequence (B0F481 23-833 P347A) above, with A325P, V332A counted along it
Excerpt: as §1, §2

[8] = molecular target: T8, Arabidopsis thaliana BIO3-BIO1 (BioDA) mutants (Arabidopsis thaliana, UniProt B0F481, T512I)
T8 construct: with the predicted N-terminal mitochondrial transit peptide removed; 6xHis-tag (N); thrombin cleavage site (N); made in house; host or cells: E. coli BL21 (DE3) bioA
T8 sequence (B0F481 23-833 T512I): as the sequence (B0F481 23-833 P347A) above, with A325P, T490I counted along it
Excerpt: as §1, §2

[9] = molecular target: T9, Arabidopsis thaliana BIO3-BIO1 (BioDA) mutants (Arabidopsis thaliana, UniProt B0F481, V354E)
T9 construct: with the predicted N-terminal mitochondrial transit peptide removed; 6xHis-tag (N); thrombin cleavage site (N); made in house; host or cells: E. coli BL21 (DE3) bioA
T9 sequence (B0F481 23-833 V354E): as the sequence (B0F481 23-833 P347A) above, with A325P, V332E counted along it
Excerpt: as §1, §2

[10] = molecular target: T10, Arabidopsis thaliana BIO3-BIO1 (BioDA) mutants (Arabidopsis thaliana, UniProt B0F481, V354L)
T10 construct: with the predicted N-terminal mitochondrial transit peptide removed; 6xHis-tag (N); thrombin cleavage site (N); made in house; host or cells: E. coli BL21 (DE3) bioA
T10 sequence (B0F481 23-833 V354L): as the sequence (B0F481 23-833 P347A) above, with A325P, V332L counted along it
Excerpt: as §1, §2

[11] = molecular target: T11, Arabidopsis thaliana BIO3-BIO1 (BioDA) mutants (Arabidopsis thaliana, UniProt B0F481, T393V)
T11 construct: with the predicted N-terminal mitochondrial transit peptide removed; 6xHis-tag (N); thrombin cleavage site (N); made in house; host or cells: E. coli BL21 (DE3) bioA
T11 sequence (B0F481 23-833 T393V): as the sequence (B0F481 23-833 P347A) above, with A325P, T371V counted along it
Excerpt: as §1, §2

[12] = molecular target: T12, Arabidopsis thaliana BIO3-BIO1 (BioDA) mutants (Arabidopsis thaliana, UniProt B0F481, S390C)
T12 construct: with the predicted N-terminal mitochondrial transit peptide removed; 6xHis-tag (N); thrombin cleavage site (N); made in house; host or cells: E. coli BL21 (DE3) bioA
T12 sequence (B0F481 23-833 S390C): as the sequence (B0F481 23-833 P347A) above, with A325P, S368C counted along it
Excerpt: as §1, §2

SMILES | inhibition at 1 µM [5] | inhibition at 1 µM [6] | inhibition at 1 µM [7] | inhibition at 1 µM [8] | inhibition at 1 µM [1] | inhibition at 1 µM [9] | inhibition at 1 µM [10] | inhibition at 1 µM [11] | inhibition at 1 µM [2] | inhibition at 1 µM [12] | inhibition at 1 µM [3] | inhibition at 1 µM [4] | inhibition at 0.2 µM [5] | inhibition at 5 µM [5] | inhibition at 0.2 µM [6] | inhibition at 5 µM [6] | inhibition at 0.2 µM [7] | inhibition at 5 µM [7] | inhibition at 0.2 µM [8] | inhibition at 5 µM [8] | also measured
CCn1c(Cn2ccc(C(F)(F)F)n2)cc(=O)c(C(=O)O)c1-c1ccc(Cl)c(Cl)c1 [Compound L, 2-(3,4-dichlorophenyl)-1-ethyl-4-oxo-6-[[3-(trifluoromethyl)pyrazol-1-yl]methyl]pyridine-3-carboxylic acid] | – | – | – | – | – | – | – | – | – | – | – | – | – | – | – | – | – | – | – | – | inhibition at 0.01 µM [1]: 8%; inhibition at 0.075 µM [1]: 23%; inhibition at 0.5 µM [1]: 47%; inhibition at 0.01 µM [2]: 6%; inhibition at 0.075 µM [2]: 17%; inhibition at 0.5 µM [2]: 68%; inhibition at 0.01 µM [3]: 7%; inhibition at 0.075 µM [3]: 3%; inhibition at 0.5 µM [3]: 32%; inhibition at 0.01 µM [4]: 0%; inhibition at 0.075 µM [4]: 1%; inhibition at 0.5 µM [4]: 2%
CCOC(=O)c1nn(-c2ccc3c(c2)OC(F)(F)C(F)(F)O3)c2cccc(C(C)=O)c2c1=O [Compound A, ethyl 5-acetyl-4-oxo-1-(2,2,3,3-tetrafluoro-1,4-benzodioxin-6-yl)cinnoline-3-carboxylate] | 52% | 0% | 9% | 37% | 20% | 25% | 1% | 10% | 10% | 21% | 3% | 0% | – | – | – | – | – | – | – | – | –
CCn1c(-c2ccc(Cl)c(Cl)c2)c(C(=O)O)c(=O)c2cc(F)ccc21 [Compound M, 2-(3,4-dichlorophenyl)-1-ethyl-6-fluoro-4-oxo-quinoline-3-carboxylic acid] | 71% | 60% | 13% | 85% | 26% | 0% | 43% | 19% | 38% | 44% | 4% | 2% | 36% | 90% | 0% | 95% | 6% | 65% | 48% | 96% | inhibition at 0.2 µM [1]: 8%; inhibition at 5 µM [1]: 52%; inhibition at 0.2 µM [9]: 0%; inhibition at 5 µM [9]: 23%; inhibition at 0.2 µM [10]: 4%; inhibition at 5 µM [10]: 78%; inhibition at 0.2 µM [11]: 0%; inhibition at 5 µM [11]: 46%; inhibition at 0.2 µM [2]: 12%; inhibition at 5 µM [2]: 74%; inhibition at 0.2 µM [12]: 16%; inhibition at 5 µM [12]: 74%; inhibition at 0.2 µM [3]: 6%; inhibition at 5 µM [3]: 25%; inhibition at 0.2 µM [4]: 0%; inhibition at 5 µM [4]: 0%
CCn1c(C)c(-c2ccc(F)cc2F)c(=O)c(C(=O)O)c1-c1ccc(Cl)c(Cl)c1 [Compound C, 2-(3,4-dichlorophenyl)-5-(2,4-difluorophenyl)-1-ethyl-6-methyl-4-oxo-pyridine-3-carboxylic acid] | 86% | 92% | 26% | 96% | 27% | 0% | 32% | 31% | 42% | 55% | 7% | 13% | 49% | 97% | 14% | 103% | 0% | 75% | 60% | 99% | inhibition at 0.2 µM [1]: 3%; inhibition at 5 µM [1]: 51%; inhibition at 0.2 µM [9]: 0%; inhibition at 5 µM [9]: 39%; inhibition at 0.2 µM [10]: 0%; inhibition at 5 µM [10]: 86%; inhibition at 0.2 µM [11]: 3%; inhibition at 5 µM [11]: 70%; inhibition at 0.2 µM [2]: 11%; inhibition at 5 µM [2]: 81%; inhibition at 0.2 µM [12]: 27%; inhibition at 5 µM [12]: 83%; inhibition at 0.2 µM [3]: 9%; inhibition at 5 µM [3]: 22%; inhibition at 0.2 µM [4]: 8%; inhibition at 5 µM [4]: 0%
